Laboratory results from US11078220B2, “High-purity large-scale preparation of stannsoporfin” (Mallinckrodt Hospital Products IP Limited, priority 2006, dated 2021).

Experiments:
[1] = Long-term storage stability of high-purity stannsoporfin at 25° C. and 60% relative humidity; format: physicochemical; settings: 25° C./60% RH
Experimental: (§1) The long-term stability of the compound was studied under two different storage conditions: 25° C. (+/−2° C.) and 60% relative humidity (+/−5%); and 40° C. (+/−2° C.) and 75% relative humidity (+/−5%). Primary packaging for the compound was a 4-mil polyethylene bag and secondary packaging for the compound was a 4 mil polyethylene bag, stored in an HDPE drum.
(§2) Table 5 and Table 6 show stability data for the batch described in Table 3, under the 25° C./60% RH and 40° C./75% RH conditions, respectively. Table 7 and Table 8 show stability data for the batch described in Table 4 under the 25° C./60% RH and 40° C./75% RH conditions, respectively. Data for the zero-month time point was taken from the batch release analysis (the zero time point represents the actual date when samples were placed in the stability test chambers). The samples were analyzed at approximately 3 months and approximately 6 months after the samples were placed under the storage conditions.

[2] = Long-term storage stability of high-purity stannsoporfin at 40° C. and 75% relative humidity; format: physicochemical; settings: 40° C./75% RH
Experimental: as §1, §2

[3] = batch of Table 3 (0.840 kg), 0 months
[4] = batch of Table 3 (0.840 kg), 3 months
[5] = batch of Table 3 (0.840 kg), 6 months
[6] = batch of Table 4 (1.364 kg), 0 months
[7] = batch of Table 4 (1.364 kg), 3 months
[8] = batch of Table 4 (1.364 kg), 6 months

In the case of “tin (IV) mesoporphyrin IX dichloride [stannsoporfin]”, the “HPLC assay (w/w as is)” value [1, 3] is reported as 100.4%, the “HPLC assay (w/w, solvent-free anhydrous basis)” value [1, 3] is reported as 100.7% and the “HPLC purity (impurity peak at RRt retention time 0.72-0.73)” value [1, 3] is reported as 0.06%. The “HPLC purity (total impurities)” value [1, 3] was 0.3, the “Water content (Karl Fischer, coulometric)” value (“Water content” below) [1, 3] was “Trace < 1%” and the “HPLC assay (w/w as is)” value [1, 4] was 99.6%. For the same substance, the “HPLC assay (w/w, solvent-free anhydrous basis)” value [1, 4] was 99.8%, the “HPLC purity (impurity peak at RRt retention time 0.72-0.73)” value [1, 4] was less than 0.05% and the “HPLC purity (total impurities)” value [1, 4] was 0.22. For the same substance, the “Water content” value [1, 4] was <1% (0.1%), the “HPLC assay (w/w as is)” value [1, 5] was 98.2% and the “HPLC assay (w/w, solvent-free anhydrous basis)” value [1, 5] was 98.4%. The “HPLC purity (impurity peak at RRt retention time 0.72-0.73)” value [1, 5] was 0.07%, the “HPLC purity (total impurities)” value [1, 5] was 0.24 and the “Water content” value [1, 5] was <1% (0.1%). The “HPLC assay (w/w as is)” value [1, 6] was 102.3%, the “HPLC assay (w/w, solvent-free anhydrous basis)” value [1, 6] was 102.3% and the “HPLC parity (total impurities)” value [1, 6] was 0.22. For the same substance, the “HPLC purity (impurity peak at RRt retention time 0.72-0.73)” value [1, 6] was 0.06%, the “Water content” value [1, 6] was “Trace < 1%” and the “HPLC assay (w/w as is)” value [1, 7] was 102.0%. For the same substance, the “HPLC assay (w/w, solvent-free anhydrous basis)” value [1, 7] was 102.1%, the “HPLC parity (total impurities)” value [1, 7] was 0.29 and the “HPLC purity (impurity peak at RRt retention time 0.72-0.73)” value [1, 7] was 0.05%. For the same substance, the “Water content” value [1, 7] was <1% (0.1%), the “HPLC assay (w/w as is)” value [1, 8] was 98.4% and the “HPLC assay (w/w, solvent-free anhydrous basis)” value [1, 8] was 98.5%. For the same substance, the “HPLC parity (total impurities)” value [1, 8] was 0.19, the “HPLC purity (impurity peak at RRt retention time 0.72-0.73)” value [1, 8] was 0.05% and the “Water content” value [1, 8] was <1% (0.1%). The “HPLC assay (w/w as is)” value [2, 3] was 100.4%, the “HPLC assay (w/w, solvent-free anhydrous basis)” value [2, 3] was 100.7% and the “HPLC purity (impurity peak at RRt retention time 0.72-0.73)” value [2, 3] was 0.06%. The “HPLC purity (total impurities)” value [2, 3] was 03, the “Water content” value [2, 3] was “Trace <1%” and the “HPLC assay (w/w as is)” value [2, 4] was 100.9%. For the same substance, the “HPLC assay (w/w, solvent-free anhydrous basis)” value [2, 4] was 101.2%, the “HPLC purity (impurity peak at RRt retention time 0.72-0.73)” value [2, 4] was less than 0.05% and the “HPLC purity (total impurities)” value [2, 4] was 0.28. The “Water content” value [2, 4] was <1% (0.2%), the “HPLC assay (w/w as is)” value [2, 5] was 99.6% and the “HPLC assay (w/w, solvent-free anhydrous basis)” value [2, 5] was 99.8%. The “HPLC purity (impurity peak at RRt retention time 0.72-0.73)” value [2, 5] was 0.06%, the “HPLC purity (total impurities)” value [2, 5] was 0.26 and the “Water content” value [2, 5] was <1% (0.1%). For the same substance, the “HPLC assay (w/w as is)” value [2, 6] was 102.3%, the “HPLC assay (w/w, solvent-free anhydrous basis)” value [2, 6] was 102.3% and the “HPLC purity (impurity peak at RRt retention time 0.72-0.73)” value [2, 6] was 0.06%. The “HPLC purity (total impurities)” value [2, 6] was 0.22, the “Water content” value [2, 6] was “Trace < 1%” and the “HPLC assay (w/w as is)” value [2, 7] was 101.0%. The “HPLC assay (w/w, solvent-free anhydrous basis)” value [2, 7] was 101.1%, the “HPLC purity (impurity peak at RRt retention time 0.72-0.73)” value [2, 7] was less than 0.05% and the “HPLC purity (total impurities)” value [2, 7] was 0.29. The “Water content” value [2, 7] was <1% (0.1%), the “HPLC assay (w/w as is)” value [2, 8] was 97.7% and the “HPLC assay (w/w, solvent-free anhydrous basis)” value [2, 8] was 97.8%. The “HPLC purity (impurity peak at RRt retention time 0.72-0.73)” value [2, 8] was 0.06%, the “HPLC purity (total impurities)” value [2, 8] was 0.24 and the “Water content” value [2, 8] was <1% (0.1%).
